Reference: patent US7393637B2, “Methods for detecting cancer and monitoring cancer progression” (University of Manitoba, priority 2003, dated 2008)

B1: 356delA BNIP3: truncated BNIP3, frame shift in the CD domain by deletion of A at nucleotide 356 (SEQ ID NO:3, protein SEQ ID NO:4) (protein, listed as Homo sapiens)
chain: MSQNGAPGMQEESLQGSWVELHFSNNGNGGSVPASVSIYNGDMEKILLDAQHESGRSSSKSSHCDSPPRSQTPQDTNRASETDTHSIGEKNSSQSEEDDIERRKEVESILKKNSDWIWVGQVGRKIFPPRSSSLNTRSARPPSA

Legend:
Format in all cases: cell-based, human
U251 cells [1] = assay: Determination of mitochondrial membrane potential (TMRM staining) in transfected U251 cells; conditions: U251 cells co-transfected with GFP
Experimental: U251 cells were grown in chamber slides and were co-transfected with pEGFP N1 (Clontech) and pCDNA3, pCDNA3-BNIP3, pCDNA3-BNIP3ΔTM, and pCDNA3-356delA BNIP3 using Geneporter™ transfection reagent (GTS) as per the manufacturer's instructions. After 16 h of incubation, the slides were washed twice with 1×Hepes-buffered saline solution (HBSS) and tetramethylrohdamine (TMRM; Molecular Probes) was added to the slides at […] final concentration and incubated in the dark at RT for 10 min. The slides were then viewed on an Olympus IX70 inverted confocal laser microscope using Fluoview 2.0 software.

[2] = test system: glioblastoma cell lines U87 and U251; assay: Cell death after transfection of glioblastoma cell lines (chromatin condensation); conditions: U87 and U251 cells transfected, normoxia
Experimental: (§1) Human glioblastoma cell lines U251 and U87 (obtained from Dr. V. W. Yong, University of Calgary and Dr. C. Hao, University of Alberta, respectively) were cultured in Dulbecco's modified essential medium (DMEM), supplemented with 10% fetal bovine serum, 2 mM L-glutamine, 1 mM MEM sodium pyruvate, 0.3% glucose and 100 units/mI penicillin/streptomycin. The cell lines were grown in a humidified incubator in the presence of 5% CO2 at 37° C. Cells were maintained under hypoxic conditions (less than 1% oxygen) at 37° C. within a hypoxic chamber (Forma Scientific) filled with 5% CO2 balanced with N2. Transfection experiments were carried out with the U87 and U251 cell lines. The cells were plated 48 hours prior to transfection to achieve approximately 40% confluence. The U87 cell line was transfected using Geneporter™ transfection reagent (GTS) and the U251 cell line using Effectene™ transfection reagent (Qiagen) as per the manufacturer's instructions.
After transfection of U87 and U251 cell lines with 2 μg of pCDNA3, pCDNA3-BNIP3, pCDNA3-BNIP3ΔTM, or pCDNA3-356delA BNIP3, the cells were incubated for 24 and 48 hours, then trypsinized and centrifuged and then resuspended in 2 ml of media. A 200 μl aliquot was placed in a ThermoShandon cytospin at 1000 RPM for 5 minutes with medium-low acceleration. The slides obtained from the cytospin were immediately fixed with 3.7% formaldelyde in 1×PBS at RT for one hour. Following three washes with 1' PBS (0.1% NP40), slides were incubated with primary BNIP3 antibody (1:700 dilution in […], 1×PBS, 0.1% NP40) for 1 hour at RT. The slides were then washed three times in PBS (0.1% NP40) and incubated with goat anti-rabbit fluorescein isothiocyanate (FITC)-conjugated secondary antibody (Sigma) for 1 hour. […] 200 or more cells were counted per sample to assess DNA condensation. Fluorescence was visualized and captured using an Olympus BX51 fluorescent microscope with a Photometrics Cool Snap CF camera and an Olympus IX70 inverted confocal laser microscope using Fluoview 2.0 software.

U87 cells = assay: Antisense experiment: hypoxia-induced cell death in U87 cells (acridine orange staining); conditions: hypoxia 72 hours
Experimental: U251 and U87 cells were plated on 100 mm plates and grown to approximately 80% confluence, then incubated in hypoxic conditions for a time course of 0, 24, 48, 72 and 96 hours. Following incubation under hypoxia, the cells were trypsinized from the plates and centrifuged to collect a cell pellet. Cells were resuspended in 100 μl of media and 4 μl of acridine orange (100 μg/ml) and ethidium bromide (100 μg/ml) were added. A 10 μl aliquot was removed, placed on a microscope slide and a coverslip was applied. Using a fluorescein filter, the percentage of dead cells was determined by counting the number of DNA condensation nuclei. At least 200 cells were counted per sample as previously described (5).
Antisense oligonucleotide (5′-[…]-3′ (SEQ ID NO:13)) (Sigma Genesys, Oakville, ON) and sense oligonucleotide (5′-[…]-3′ (SEQ ID NO:14)) were complimentary to bases −1 to +19 of the human Bnip3 gene. Random sequence oligonucleotide (5′-GCAGTCAGCGACGTCGMGC-3′ (SEQ ID NO:15)) contained the same bases in a scrambled sequence. Oligonucleotides were phosphorothioate-modified to prevent degradation. […] Cell death was determined via acridine orange staining or cells were lysed and protein extracts were analyzed for BNIP3 expression as described above.

BNIP3 = assay: Antisense experiment: BNIP3 expression in U87 cells under hypoxia (Western blot); conditions: hypoxia 72 hrs
Experimental: U251 cells were lysed for total protein or nuclear proteins as previously published (5). The lysates ([…]) were separated by SDS-PAGE and transferred to nitrocellulose membranes. Membranes were blocked in 5% skim milk and western blotted with monoclonal antibodies against BNIP3 (1:1000) (5), pro-caspase 8 antibodies (1:1000, Upstate Biotech.), HDAC1 antibodies (1:1000, Upstate Biotech),) or β-actin (1:50, Sigma). The western blots were visualized with chemiluminescence (NEN-Dupont).
Antisense oligonucleotide (5′-[…]-3′ (SEQ ID NO:13)) (Sigma Genesys, Oakville, ON) and sense oligonucleotide (5′-[…]-3′ (SEQ ID NO:14)) were complimentary to bases −1 to +19 of the human Bnip3 gene. Random sequence oligonucleotide (5′-GCAGTCAGCGACGTCGMGC-3′ (SEQ ID NO:15)) contained the same bases in a scrambled sequence. Oligonucleotides were phosphorothioate-modified to prevent degradation. Oligonucleotides were diluted in Opti-MEM (Gibco BRL), mixed with oligofectamine (Invitrogen) and incubated with U87 cells for 4 hours then hypoxic media was added and cells were further incubated under hypoxia for 72 hours. Cell death was determined via acridine orange staining or cells were lysed and protein extracts were analyzed for BNIP3 expression as described above.

U251 cells [3] = assay: Hypoxia-induced cell death in transfected U251 cells (β-galactosidase viability assay)
Experimental: as §1
U87 and U251 cells were co-transfected in 100 mm culture plates with 2 μg of pcDNA3, pcDNA3-BNIP3, pcDNA3-BNIP3ΔTM, pcDNA3-356delA BNIP3 plasmid DNA and 0.5 μg of β-galactosidase reporter plasmid DNA. […] The percentage of dead cells was calculated by assessing the number of rounded, condensed, blue-staining cells in the total population of flat, blue-staining cells. At least 200 cells were counted for each experiment.

Row | Molecule | TMRM staining (mitochondrial membrane potential, Δψm) (U251 cells [1]) | induction of cell death [2] | hypoxia-induced cell death (U87 cells) | BNIP3 expression (BNIP3) | cell death (U251 cells [3]; U251 cells transfected with cDNA, hypoxic conditions 72 hours, vector alone 40%, normoxia 10%) [%] | reduction of cell death versus vector alone (U251 cells [3]; U251 cells, hypoxic conditions) [%]
1 | wt BNIP3: wild-type Bcl-2 Nineteen Kilodalton Interacting Protein 3 (SEQ ID NO:2), expressed from transfected cDNA | TMRM staining decreased | inducing cell death |  |  |  | 
2 | 5′-GCGCTCCGTTCTGCGACATG-3′ (SEQ ID NO:13) (listed as DNA, chemistry not given here) [antisense oligonucleotides against BNIP3, antisense oligonucleotide to bases −1 to +19 of the human Bnip3 gene] |  |  | inhibited hypoxia-induced cell death | effectively blocks BNIP3 expression |  | 
3 | 235—236insA BNIP3: truncated BNIP3, frame shift in the PEST domain by insertion of A at nucleotide 236 (SEQ ID NO:5, protein SEQ ID NO:6) |  | failed to induce cell death |  |  |  | 
4 | B1 | failed to change TMRM fluorescence | fails to induce cell death |  |  | 20 | 50
